The record followed here is patent publication US7977434B2, “Polymeric hydrophobic aminonitrile quats used for bleach activation” (BASF Aktiengesellschaft, priority 2005, dated 2011).

Holding throughout (conditions): 25° C., 1% bleach activator, 15% by weight sodium percarbonate in color laundry detergent, 30 min wash
A short description of assay [1]: Launderometer bleaching test, red wine stain. As to the method:
(§1) Standard test in a launderometer with 5% activator addition at 25° C. and 50° C. of tea-, red wine-, grass- and curry-stained fabric. In addition, the removal of triolein and olive oil stains from cotton fabric is investigated. To this end, triolein and olive oil are dyed with 0.1% Sudan red 7 B (=Solvent Red 19). This dye is dissolved and homogenized beforehand with gentle warming. The preparation is effected by adding dropwise with a pipette, in the course of which the test fabric is stretched. 0.1 g of the solution is added dropwise and spreads on the fabric overnight. All test specimens are determined twice.
(§2) To this end, 15% by weight of bleach (sodium percarbonate) and 1.2 and 5% by weight of the appropriate activator are mixed into a commercial color laundry detergent which is homogenized in dry form.
The bleaching experiments in the launderometer are evaluated by reflectance measurement and calculation of the bleaching action on the bleachable stains used (tea, red wine, grass, curry, triolein and olive oil). The standard deviation of the reflectance R is <1%. […]
Mixing of stock hardness 1 (Ca^+++Mg^++) and stock hardness 2 (NaHCO3), both 0.8 mol/l in each case. […] The water hardness is determined by using Titriplex solution. • Stock hardness 1 94.09 g of calcium chloride 2H2O and 32.53 g of magnesium chloride. […]

A short description of assay [2]: Launderometer bleaching test, tea stain. As for the experimental part: (§3) […] In addition, the removal of triolein and olive oil stains from cotton fabric is investigated. To this end, triolein and olive oil are dyed with 0.1% Sudan red 7 B (=Solvent Red 19). This dye is dissolved and homogenized beforehand with gentle warming. The preparation is effected by adding dropwise with a pipette, in the course of which the test fabric is stretched. 0.1 g of the solution is added dropwise and spreads on the fabric overnight. All test specimens are determined twice.
(§4) The bleaching experiments in the launderometer are evaluated by reflectance measurement and calculation of the bleaching action on the bleachable stains used (tea, red wine, grass, curry, triolein and olive oil).
(§5) Commercially unavailable stains such as tea, chlorophyll were premeasured individually.
(§6) Mixing of stock hardness 1 (Ca^+++Mg^++) and stock hardness 2 (NaHCO3), both 0.8 mol/l in each case. Hard water is tested before use. The water hardness is determined by using Titriplex solution. • Stock hardness 1 94.09 g of calcium chloride 2H2O and 32.53 g of magnesium chloride. […]

A short description of assay [3]: Launderometer bleaching test, grass stain. As to the method:
as §3, §4, §5, §6

Assay [4] is described as follows: Launderometer bleaching test, curry stain. As to the method: as §1, §2
(§7) The bleaching experiments in the launderometer are evaluated by reflectance measurement and calculation of the bleaching action on the bleachable stains used (tea, red wine, grass, curry, triolein and olive oil). The standard deviation of the reflectance R is <1%.
as §6

A short description of assay [5]: Launderometer test, removal of triolein stain dyed with Sudan red 7 B. As to the method: as §1, §2, §7, §6
Assay [6] in a line: Launderometer test, removal of olive oil stain dyed with Sudan red 7 B. As for the experimental part: as §1, §2, §7, §6

`C[N+]1(CC#N)CCOCC1.O=S(=O)([O-])O` [BMG, methylmorpholinioacetonitrile hydrogensulfate]: in assay [1], the “reflectance, Red wine” value came out at 61.8%. Also, the “reflectance, Tea” value in assay [2] is listed as 48.5%. Besides, the “reflectance, Grass” value in assay [3] is 40.1%. The “reflectance, Curry” value in assay [4] is given as 69.2%. The “reflectance, Triolein” value in assay [5] turned out to be 42.2%. In assay [6], the “reflectance, Olive oil” value is reported as 39.9%.
Take `CC(=O)N(CCN(C(C)=O)C(C)=O)C(C)=O` [TAED, tetraacetylethylenediamine]: the “reflectance, Red wine” value in assay [1] stood at 58.4%. Also, in assay [2], the “reflectance, Tea” value came out at 34.5%. In assay [3], the “reflectance, Grass” value was determined as 39.2%. Besides, the “reflectance, Curry” value in assay [4] came out at 65.1%. Besides, in assay [5], the “reflectance, Triolein” value was found to be 42.6%. Also, in assay [6], the “reflectance, Olive oil” value was 40.0%.
